{"source": "patent US12268725B2", "about": "“Composition of BL-8040” (BioLineRx Ltd., priority 2020, dated 2025)", "tested_on": "neutrophil migration to peripheral blood", "experiment": "In vivo neutrophil migration to peripheral blood after injection", "details": "mice, single subcutaneous dose of 5 mg/kg BL-8040 in 200 μl PBS, bled 2 hours after injection, flow cytometry of mature neutrophils, increase relative to control mice", "method": "In some of any of the respective embodiments, promotion of in vivo neutrophil migration to peripheral blood is determined by subcutaneously injecting mice with 5 mg/kg of BL-8040 (SEQ ID NO: 1), reconstituted in 200 μl of PBS, then bleeding the mice 2 hours after injection (e.g., by cardiac puncture into tubes with heparin) and quantifying the number of mature neutrophils in the peripheral blood (e.g., by flow cytometry) relative to control (untreated) mice.\nBL-8040 (SEQ ID NO: 1) is an antagonist of the CXCR4 chemokine receptor. The induction of the cellular activity mediated by CXCR4 is responsible for the attachment of white blood cells to the bone marrow stromal cells. Inhibition of the CXCR4 activity (e.g., by BL-8040 (SEQ ID NO: 1)) is therefore expected to induce the detachment of the white blood cells (which include but are not limited to neutrophils) from the bone marrow stroma, and the subsequent migration of the cells to the peripheral blood. […]\nMice were subcutaneously injected with a single dose of 5 mg/kg of BL-8040 (SEQ ID NO: 1), reconstituted in 200 μl of PBS. […] Flow cytometry was used to evaluate the number of mature neutrophils in the peripheral blood, and the increase relative to control mice was calculated.", "note": "Bridge positions count the residues as written; N and C are the ends. Square brackets hold non-standard residues; d marks the D form. * marks the point of attachment. 2Nal = N[C@@H](Cc1ccc2ccccc2c1)C(=O)O; Benzoyl(4-F) = O=C(c1ccc(F)cc1)*; Cit = NC(=O)NCCC[C@H](N)C(=O)O", "data": [{"substance": "Reference Example 1: BL-8040 prepared on Rink amide resin with HOBt/TBTU coupling and iodine cyclization; lacks the RRT 0.87 and 0.72 compounds ({Benzoyl(4-F)}-RR[2Nal]CY[Cit]K[dK]PYR[Cit]CR-NH2; disulfide 4-13 (inferred))", "values": [{"measurement": "Fold increase in neutrophil number", "result": 5.6}]}]}
